System: salmonella of TA1535
Assay: Mutation test (Ames test), plate method
Format: cell-based
Details: strain TA1535, plate method, under metabolic activity condition, 625 to 10,000 micro gram/plate, maximum number of colonies divided by colonies in control solvent, tested on the TMPTA monomer of each example
From the text: One time absorption refinement treatment is effective but multiple time absorption refinement treatments are preferable to improve the removal effect of the impurities. A number of methods for use in the present invention of measuring the safety of the radical polymerizable monomer can be used. Ames test (mutagen test) is employed in the present invention.
Ames test is a test in which germs are used. The strain among salmonellas used in the test is histidine auxotroph (his−), which cannot synthesize histidine. In the test, the number of colonies of recoveries from histidine auxotroph (his−) to (his+) which can synthesize histidine again as a result of a test material reacting with the strain is counted to determine the mutation property of the material.
Currently, among these strains, TA1535, TA1537, TA100, TA98 or WP2uvrA—are generally used. When TA1535 is used, radical polymerizable monomers in the market are frequently positive. Therefore, TA1535 test is employed in the present invention.
“Mutation test in Ordinance on Safety and Hygiene—Guideline and GLP— (published by Japan industrial Safety & Health Association)” is referred to with regard to the specific test method.
A mutation test (Ames test) is employed to check the safety in the present invention.
A plate method is adopted as the test method in the present invention.
TA1535 is used as the strain and the test is conducted under the condition of metabolic activity.
Add 250 mg of dimethylsulfoxide (DIMSO) to 250 mg of a radical polymerizable monomer having at least 3 functional groups with no charge transport structure followed by ultrasonic treatment for one minute to prepare a clear solution for the test.
5 kinds of densities (625 micro gram/plate, 1,250 micro gram/plate, 2,500 micro gram/plate, 5,000 micro gram/plate, and 10,000 micro gram/plate) of the radical polymerizable monomer having at least 3 functional groups with no charge transport structure are used. Among these, the quotient (referred to as “colony increase multiple” in the present invention) obtained by dividing the maximum number of the colonies with the number of colonies in the control solvent is used for comparison. The smaller the quotient, the safer the test sample.

Row | Compound | Colony increase multiple | other results
1 | C=CC(=O)OCC(CC)(COC(=O)C=C)COC(=O)C=C [Ex. 7, trimethylol propane triacrylate] | 1.9 | Colony increase multiple (listed as Example 7): 1.9
2 | C=CC(=O)OCC(CC)(COC(=O)C=C)COC(=O)C=C [Ex. 5, trimethylol propane triacrylate] | 1.4 | Colony increase multiple (listed as Example 5): 1.4
3 | C=CC(=O)OCC(CC)(COC(=O)C=C)COC(=O)C=C [Ex. 9, trimethylol propane triacrylate] | 2.1 | Colony increase multiple (listed as Example 9): 2.1
4 | C=CC(=O)OCC(CC)(COC(=O)C=C)COC(=O)C=C [Ex. 6, trimethylol propane triacrylate] | 2.5 | Colony increase multiple (listed as Example 6): 2.5
5 | C=CC(=O)OCC(CC)(COC(=O)C=C)COC(=O)C=C [Comp. 1, trimethylol propane triacrylate] | 3.4 | Colony increase multiple (listed as Comparative Example 1): 3.4
6 | C=CC(=O)OCC(CC)(COC(=O)C=C)COC(=O)C=C [Ex. 10, trimethylol propane triacrylate] | 1.9 | Colony increase multiple (listed as Example 10): 1.9
7 | C=CC(=O)OCC(CC)(COC(=O)C=C)COC(=O)C=C [Ex. 2, trimethylol propane triacrylate] | 1.1 | Colony increase multiple (listed as Example 2): 1.1
8 | C=CC(=O)OCC(CC)(COC(=O)C=C)COC(=O)C=C [Ex. 11, trimethylol propane triacrylate] | 1.4 | Colony increase multiple (listed as Example 11): 1.4
9 | C=CC(=O)OCC(CC)(COC(=O)C=C)COC(=O)C=C [Ex. 12, trimethylol propane triacrylate] | 1.4 | Colony increase multiple (listed as Example 12): 1.4
10 | C=CC(=O)OCC(CC)(COC(=O)C=C)COC(=O)C=C [Ex. 8, trimethylol propane triacrylate] | 2.6 | Colony increase multiple (listed as Example 8): 2.6
11 | C=CC(=O)OCC(CC)(COC(=O)C=C)COC(=O)C=C [Ex. 3, trimethylol propane triacrylate] | 1.2 | Colony increase multiple (listed as Example 3): 1.2
12 | C=CC(=O)OCC(CC)(COC(=O)C=C)COC(=O)C=C [Comp. 2, trimethylol propane triacrylate] | 2.7 | Colony increase multiple (listed as Comparative Example 2): 2.7
13 | C=CC(=O)OCC(CC)(COC(=O)C=C)COC(=O)C=C [Comp. 3, trimethylol propane triacrylate] | 2.7 | Colony increase multiple (listed as Comparative Example 3): 2.7
14 | C=CC(=O)OCC(CC)(COC(=O)C=C)COC(=O)C=C [Ex. 1, trimethylol propane triacrylate] | 1.2 | Colony increase multiple (listed as Example 1): 1.2
15 | C=CC(=O)OCC(CC)(COC(=O)C=C)COC(=O)C=C [Ex. 4, trimethylol propane triacrylate] | 1.1 | Colony increase multiple (listed as Example 4): 1.1

From patent publication US8343698B2, “Photoreceptor, method of manufacturing same, image formation method, image forming apparatus, and process cartridge” (Ricoh Company, Ltd., priority 2009, dated 2013)
